{"source": "the supplement of paper PMC9663587", "key": {"Neratinib/HKI272": {"compound": "CCOc1cc2ncc(C#N)c(Nc3ccc(OCc4ccccn4)c(Cl)c3)c2cc1NC(=O)/C=C/CN(C)C [Neratinib/HKI272]", "assay": "increase in dead-cell fraction, 72 h; higher = more death;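 note: breast cancer cell lines in 384-well plates, stained with Hoechst plus LIVE/DEAD far red dye and imaged, cells above an LDR intensity threshold counted dead, Hoechst-negative corpses included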"}, "[1]": {"compound": "CCc1cnn2c(NCc3ccc[n+]([O-])c3)cc(N3CCCC[C@H]3CCO)nc12", "assay": "increase in dead-cell fraction, 72 h; higher = more death"}, "[2]": {"compound": "CC(=O)c1c(C)c2cnc(Nc3ccc(N4CCNCC4)cn3)nc2n(C2CCCC2)c1=O", "assay": "increase in dead-cell fraction, 72 h; higher = more death"}, "LEE011/Ribociclib": {"compound": "CN(C)C(=O)c1cc2cnc(Nc3ccc(N4CCNCC4)cn3)nc2n1C1CCCC1 [LEE011/Ribociclib]", "assay": "increase in dead-cell fraction, 72 h; higher = more death"}, "[3]": {"compound": "CCN1CCN(Cc2ccc(Nc3ncc(F)c(-c4cc(F)c5nc(C)n(C(C)C)c5c4)n3)nc2)CC1", "assay": "increase in dead-cell fraction, 72 h; higher = more death"}, "Flavopiridol": {"compound": "CN1CC[C@H](c2c(O)cc(O)c3c(=O)cc(-c4ccccc4Cl)oc23)[C@H](O)C1 [Flavopiridol]", "assay": "increase in dead-cell fraction, 72 h; higher = more death"}, "BSJ-03-123": {"compound": "CC(=O)c1c(C)c2cnc(Nc3ccc(N4CCN(CCOCCOCCOCCNC(=O)COc5cccc6c5C(=O)N(C5CCC(=O)NC5=O)C6=O)CC4)cn3)nc2n(C2CCCC2)c1=O [BSJ-03-123]", "assay": "increase in dead-cell fraction, 72 h; higher = more death"}, "THZ1": {"compound": "CN(C)C/C=C/C(=O)Nc1ccc(C(=O)Nc2cccc(Nc3ncc(Cl)c(-c4c[nH]c5ccccc45)n3)c2)cc1 [THZ1]", "assay": "increase in dead-cell fraction, 72 h; higher = more death"}, "AZD6738": {"compound": "C[C@@H]1COCCN1c1cc(C2([S@](C)(=N)=O)CC2)nc(-c2cc[nH]c3nccc2-3)n1 [AZD6738]"}, "BSJ-01-175": {"compound": "CN(C)C/C=C/C(=O)Nc1ccc(O[C@@H]2CCC[C@@H](Nc3ncc(Cl)c(-c4c[nH]c5ccccc45)n3)C2)cc1 [BSJ-01-175]"}, "Vorinostat": {"compound": "O=C(CCCCCCC(=O)Nc1ccccc1)NO [Vorinostat]"}, "AZD2014": {"compound": "CNC(=O)c1cccc(-c2ccc3c(N4CCOC[C@@H]4C)nc(N4CCOC[C@@H]4C)nc3n2)c1 [AZD2014]"}, "Tivantinib/ARQ197": {"compound": "O=C1NC(=O)[C@@H](c2cn3c4c(cccc24)CCC3)[C@@H]1c1c[nH]c2ccccc12 [Tivantinib/ARQ197]"}, "AZD7762": {"compound": "NC(=O)Nc1cc(-c2cccc(F)c2)sc1C(=O)N[C@H]1CCCNC1 [AZD7762]"}, "[4]": {"compound": "COc1ccc2c(c1)[C@]1(C[C@H]1c1ccc3c(/C=C/c4ccc(CN5C[C@@H](C)O[C@@H](C)C5)cc4)n[nH]c3c1)C(=O)N2"}, "[5]": {"compound": "CCN1CCN(Cc2ccc(Nc3ncc(F)c(-c4cc(F)c5nc(C)n(C(C)C)c5c4)n3)nc2)CC1"}, "[6]": {"compound": "CC(=O)Nc1cccc(-n2c(=O)n(C3CC3)c(=O)c3c(Nc4ccc(I)cc4F)n(C)c(=O)c(C)c32)c1"}, "[7]": {"compound": "CCC1=CN=CN=C1N2CCN(CC2)CC3=NC4=C(N3)C=C(C=C4)C(F)(F)F"}, "Ipatasertib/GDC0068": {"compound": "CC(C)NC[C@@H](C(=O)N1CCN(c2ncnc3c2[C@H](C)C[C@H]3O)CC1)c1ccc(Cl)cc1 [Ipatasertib/GDC0068]"}}, "data": [{"cell line": "MDAMB361", "values": [{"measurement": "increase in dead-cell fraction", "setting": "Neratinib/HKI272; 0.0003162 µM", "result": 0.0068}, {"measurement": "increase in dead-cell fraction", "setting": "Neratinib/HKI272; 0.001 µM", "result": 0.0063}, {"measurement": "increase in dead-cell fraction", "setting": "Neratinib/HKI272; 0.003162 µM", "result": 0.028}, {"measurement": "increase in dead-cell fraction", "setting": "Neratinib/HKI272; 0.01 µM", "result": 0.0198}, {"measurement": "increase in dead-cell fraction", "setting": "Neratinib/HKI272; 0.03162 µM", "result": 0.0227}, {"measurement": "increase in dead-cell fraction", "setting": "Neratinib/HKI272; 0.1 µM", "result": 0.0339}, {"measurement": "increase in dead-cell fraction", "setting": "Neratinib/HKI272; 0.3162 µM", "result": 0.0406}, {"measurement": "increase in dead-cell fraction", "setting": "Neratinib/HKI272; 1 µM", "result": 0.105}, {"measurement": "increase in dead-cell fraction", "setting": "Neratinib/HKI272; 3.162 µM", "result": 0.435}, {"measurement": "increase in dead-cell fraction", "setting": "[1]; 0.0001 µM", "result": 0.0019}, {"measurement": "increase in dead-cell fraction", "setting": "[1]; 0.0003162 µM", "result": -0.0027}, {"measurement": "increase in dead-cell fraction", "setting": "[1]; 0.001 µM", "result": -0.0041}, {"measurement": "increase in dead-cell fraction", "setting": "[1]; 0.003162 µM", "result": 0.0003}, {"measurement": "increase in dead-cell fraction", "setting": "[1]; 0.01 µM", "result": 0.0259}, {"measurement": "increase in dead-cell fraction", "setting": "[1]; 0.03162 µM", "result": 0.303}, {"measurement": "increase in dead-cell fraction", "setting": "[1]; 0.1 µM", "result": 0.148}, {"measurement": "increase in dead-cell fraction", "setting": "[1]; 0.3162 µM", "result": 0.14}, {"measurement": "increase in dead-cell fraction", "setting": "[1]; 1 µM", "result": 0.153}, {"measurement": "increase in dead-cell fraction", "setting": "[2]; 0.0003162 µM", "result": 0.0032}, {"measurement": "increase in dead-cell fraction", "setting": "[2]; 0.001 µM", "result": -0.0062}, {"measurement": "increase in dead-cell fraction", "setting": "[2]; 0.003162 µM", "result": -0.002}, {"measurement": "increase in dead-cell fraction", "setting": "[2]; 0.01 µM", "result": 0.0022}, {"measurement": "increase in dead-cell fraction", "setting": "[2]; 0.03162 µM", "result": 0.0148}, {"measurement": "increase in dead-cell fraction", "setting": "[2]; 0.1 µM", "result": 0.0157}, {"measurement": "increase in dead-cell fraction", "setting": "[2]; 0.3162 µM", "result": 0.0051}, {"measurement": "increase in dead-cell fraction", "setting": "[2]; 1 µM", "result": 0.0076}, {"measurement": "increase in dead-cell fraction", "setting": "[2]; 3.162 µM", "result": 0.0191}, {"measurement": "increase in dead-cell fraction", "setting": "LEE011/Ribociclib; 0.001 µM", "result": 0.0114}, {"measurement": "increase in dead-cell fraction", "setting": "LEE011/Ribociclib; 0.003162 µM", "result": 0.0106}, {"measurement": "increase in dead-cell fraction", "setting": "LEE011/Ribociclib; 0.01 µM", "result": 0.009}, {"measurement": "increase in dead-cell fraction", "setting": "LEE011/Ribociclib; 0.03162 µM", "result": 0.0147}, {"measurement": "increase in dead-cell fraction", "setting": "LEE011/Ribociclib; 0.1 µM", "result": 0.0129}, {"measurement": "increase in dead-cell fraction", "setting": "LEE011/Ribociclib; 0.3162 µM", "result": 0.0218}, {"measurement": "increase in dead-cell fraction", "setting": "LEE011/Ribociclib; 1 µM", "result": 0.0159}, {"measurement": "increase in dead-cell fraction", "setting": "LEE011/Ribociclib; 3.162 µM", "result": 0.0012}, {"measurement": "increase in dead-cell fraction", "setting": "LEE011/Ribociclib; 10 µM", "result": 0.0018}, {"measurement": "increase in dead-cell fraction", "setting": "[3]; 0.001 µM", "result": -0.0026}, {"measurement": "increase in dead-cell fraction", "setting": "[3]; 0.003162 µM", "result": -0.0006}, {"measurement": "increase in dead-cell fraction", "setting": "[3]; 0.01 µM", "result": 0.0107}, {"measurement": "increase in dead-cell fraction", "setting": "[3]; 0.03162 µM", "result": 0.0026}, {"measurement": "increase in dead-cell fraction", "setting": "[3]; 0.1 µM", "result": 0.0066}, {"measurement": "increase in dead-cell fraction", "setting": "[3]; 0.3162 µM", "result": 0.0052}, {"measurement": "increase in dead-cell fraction", "setting": "[3]; 1 µM", "result": 0.0161}, {"measurement": "increase in dead-cell fraction", "setting": "[3]; 3.162 µM", "result": 0.0884}, {"measurement": "increase in dead-cell fraction", "setting": "[3]; 10 µM", "result": 0.172}, {"measurement": "increase in dead-cell fraction", "setting": "Flavopiridol; 0.0001 µM", "result": 0.0029}, {"measurement": "increase in dead-cell fraction", "setting": "Flavopiridol; 0.0003162 µM", "result": -0.0069}, {"measurement": "increase in dead-cell fraction", "setting": "Flavopiridol; 0.001 µM", "result": -0.0039}, {"measurement": "increase in dead-cell fraction", "setting": "Flavopiridol; 0.003162 µM", "result": 0.0101}, {"measurement": "increase in dead-cell fraction", "setting": "Flavopiridol; 0.01 µM", "result": 0.0075}, {"measurement": "increase in dead-cell fraction", "setting": "Flavopiridol; 0.03162 µM", "result": 0.0039}, {"measurement": "increase in dead-cell fraction", "setting": "Flavopiridol; 0.1 µM", "result": -0.0034}, {"measurement": "increase in dead-cell fraction", "setting": "Flavopiridol; 0.3162 µM", "result": 0.0273}, {"measurement": "increase in dead-cell fraction", "setting": "Flavopiridol; 1 µM", "result": 0.0899}, {"measurement": "increase in dead-cell fraction", "setting": "BSJ-03-123; 0.001 µM", "result": 0.0068}, {"measurement": "increase in dead-cell fraction", "setting": "BSJ-03-123; 0.003162 µM", "result": 0.0047}, {"measurement": "increase in dead-cell fraction", "setting": "BSJ-03-123; 0.01 µM", "result": 0.0008}, {"measurement": "increase in dead-cell fraction", "setting": "BSJ-03-123; 0.03162 µM", "result": 0.006}, {"measurement": "increase in dead-cell fraction", "setting": "BSJ-03-123; 0.1 µM", "result": 0.0093}, {"measurement": "increase in dead-cell fraction", "setting": "BSJ-03-123; 0.3162 µM", "result": 0.0131}, {"measurement": "increase in dead-cell fraction", "setting": "BSJ-03-123; 1 µM", "result": 0.0189}, {"measurement": "increase in dead-cell fraction", "setting": "BSJ-03-123; 3.162 µM", "result": 0.0054}, {"measurement": "increase in dead-cell fraction", "setting": "BSJ-03-123; 10 µM", "result": 0.0713}, {"measurement": "increase in dead-cell fraction", "setting": "THZ1; 0.0001 µM", "result": -0.0046}, {"measurement": "increase in dead-cell fraction", "setting": "THZ1; 0.0003162 µM", "result": -0.0085}, {"measurement": "increase in dead-cell fraction", "setting": "THZ1; 0.001 µM", "result": -0.0074}, {"measurement": "increase in dead-cell fraction", "setting": "THZ1; 0.003162 µM", "result": 0.0099}, {"measurement": "increase in dead-cell fraction", "setting": "THZ1; 0.01 µM", "result": 0.016}, {"measurement": "increase in dead-cell fraction", "setting": "THZ1; 0.03162 µM", "result": 0.0299}, {"measurement": "increase in dead-cell fraction", "setting": "THZ1; 0.1 µM", "result": 0.166}, {"measurement": "increase in dead-cell fraction", "setting": "THZ1; 0.3162 µM", "result": 0.246}, {"measurement": "increase in dead-cell fraction", "setting": "THZ1; 1 µM", "result": 0.186}, {"measurement": "GR50, 72 h", "setting": "AZD6738", "result": 4.79, "unit": "µM"}, {"measurement": "GR50, 72 h", "setting": "BSJ-01-175", "result": 0.00163, "unit": "µM"}, {"measurement": "GR50, 72 h", "setting": "Vorinostat", "result": 0.762, "unit": "µM"}, {"measurement": "GR50, 72 h", "setting": "AZD2014", "result": "< 0.001", "unit": "µM"}, {"measurement": "GR50, 72 h", "setting": "Tivantinib/ARQ197", "result": 0.342, "unit": "µM"}, {"measurement": "GR50, 72 h", "setting": "AZD7762", "result": 0.00768, "unit": "µM"}, {"measurement": "GR50, 72 h", "setting": "[4]", "result": 0.00573, "unit": "µM"}, {"measurement": "GR50, 72 h", "setting": "[5]", "result": 0.00535, "unit": "µM"}, {"measurement": "GR50, 72 h", "setting": "[6]", "result": "> 1", "unit": "µM"}, {"measurement": "GR50, 72 h", "setting": "[7]", "result": 7.23, "unit": "µM"}, {"measurement": "GR50, 72 h", "setting": "Ipatasertib/GDC0068", "result": 0.314, "unit": "µM"}]}]}
